Our source for the X-ray crystal structure values is publication PMC8162069 (Chemical Science, 2020).

Each structure is given as a SMILES string.

This assay concerns the target HepG (Trichoderma virens, UniProt G9NDK9). Kind of assay: X-ray crystal structure. The format is binding. Conditions: active site of each subunit.

Sequence of HepG (G9NDK9 1-336): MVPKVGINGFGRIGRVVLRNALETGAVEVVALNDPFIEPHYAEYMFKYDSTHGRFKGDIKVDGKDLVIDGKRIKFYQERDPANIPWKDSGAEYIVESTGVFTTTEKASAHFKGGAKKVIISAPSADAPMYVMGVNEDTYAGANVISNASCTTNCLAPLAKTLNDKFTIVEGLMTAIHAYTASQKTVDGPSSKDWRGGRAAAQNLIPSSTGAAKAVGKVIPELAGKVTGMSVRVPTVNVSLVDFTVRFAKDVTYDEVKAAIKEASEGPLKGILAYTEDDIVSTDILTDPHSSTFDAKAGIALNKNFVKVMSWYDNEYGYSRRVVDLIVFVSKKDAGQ

In the case of `NC(=O)c1ccc[n+]([C@@H]2O[C@H](COP(=O)(O)OP(=O)(O)OC[C@H]3O[C@@H](n4cnc5c(N)ncnc54)[C@H](O)[C@@H]3O)[C@@H](O)[C@H]2O)c1` [NAD^+], the X-ray crystal structure result is given as “Each subunit of the tetrameric HepG contains a NAD^+ cofactor”.
